According to patent publication US9469650B2, “Melampomagnolide B derivatives” (BOARD OF TRUSTEES OF THE UNIVERSITY OF ARKANSAS, priority 2013, dated 2016):

Tests used:
NCI/ADR-RES = test: panel of 60 human tumor cell lines, growth inhibition (Ovarian Cancer)
UO-31 = test: panel of 60 human tumor cell lines, growth inhibition (Renal Cancer)
HCC-2998 = test: panel of 60 human tumor cell lines, growth inhibition (Colon Cancer); details: for Percent Growth: HCC-2998
SNB-75 = test: panel of 60 human tumor cell lines, growth inhibition (CNS Cancer)
UACC-62 = test: panel of 60 human tumor cell lines, growth inhibition (Melanoma)
KM12 = test: panel of 60 human tumor cell lines, growth inhibition (Colon Cancer)
SK-MEL-28 = test: panel of 60 human tumor cell lines, growth inhibition (Melanoma)
SN12C = test: panel of 60 human tumor cell lines, growth inhibition (Renal Cancer)
NCI-H322M = test: panel of 60 human tumor cell lines, growth inhibition (Non-Small Cell Lung Cancer)
HCT-116 = test: panel of 60 human tumor cell lines, growth inhibition (Colon Cancer); details: for Percent Growth: HCT-116

C=C1C(=O)O[C@H]2[C@H]1CC/C(COC(=O)CCC(=O)NCc1ccc(Cl)nc1)=C\CC[C@@]1(C)O[C@@H]21 [JVM 96]
Percent Growth (NCI/ADR-RES; Log10 Concentration −5.0): 93%
Percent Growth (NCI/ADR-RES; Log10 Concentration −6.0): 107%
Percent Growth (NCI/ADR-RES; Log10 Concentration −7.0): 101%
Percent Growth (NCI/ADR-RES; Log10 Concentration −8.0): 101%
GI50 (UO-31; Homo sapiens, UO-31): 10.2 µM
CC50 (UO-31; Homo sapiens, UO-31, read-out: LC50): 53.7 µM
IC (TGI) (UO-31; Homo sapiens, UO-31, read-out: TGI): 23.4 µM
Percent Growth (UO-31; UO-31, Log10 Concentration −4.0): −87%
Percent Growth (UO-31; UO-31, Log10 Concentration −5.0): 51%
Percent Growth (UO-31; UO-31, Log10 Concentration −6.0): 92%
Percent Growth (UO-31; UO-31, Log10 Concentration −7.0): 88%
Percent Growth (UO-31; UO-31, Log10 Concentration −8.0): 87%
Percent Growth (HCC-2998; Log10 Concentration −4.0): −90%
Percent Growth (HCC-2998; Log10 Concentration −5.0): 76%
Percent Growth (HCC-2998; Log10 Concentration −6.0): 108%
Percent Growth (HCC-2998; Log10 Concentration −7.0): 101%
Percent Growth (HCC-2998; Log10 Concentration −8.0): 99%
GI50 (HCC-2998; Homo sapiens, HCC 2998): 14.4 µM
CC50 (HCC-2998; Homo sapiens, HCC 2998, read-out: LC50): 57.3 µM
IC (TGI) (HCC-2998; Homo sapiens, HCC 2998, read-out: TGI): 28.7 µM
GI50 (SNB-75; Homo sapiens, SNB-75): 4.59 µM
CC50 (SNB-75; Homo sapiens, SNB-75, read-out: LC50): 47 µM
IC (TGI) (SNB-75; Homo sapiens, SNB-75, read-out: TGI): 20.1 µM
Percent Growth (SNB-75; SNB-75, Log10 Concentration −4.0): −94%
Percent Growth (SNB-75; SNB-75, Log10 Concentration −5.0): 41%
Percent Growth (SNB-75; SNB-75, Log10 Concentration −6.0): 68%
Percent Growth (SNB-75; SNB-75, Log10 Concentration −7.0): 69%
Percent Growth (SNB-75; SNB-75, Log10 Concentration −8.0): 80%
GI50 (UACC-62; Homo sapiens, UACC-62): 6.61 µM
CC50 (UACC-62; Homo sapiens, UACC-62, read-out: LC50): 51.2 µM
IC (TGI) (UACC-62; Homo sapiens, UACC-62, read-out: TGI): 20.9 µM
Percent Growth (UACC-62; UACC-62, Log10 Concentration −4.0): −87%
Percent Growth (UACC-62; UACC-62, Log10 Concentration −5.0): 41%
Percent Growth (UACC-62; UACC-62, Log10 Concentration −6.0): 90%
Percent Growth (UACC-62; UACC-62, Log10 Concentration −7.0): 98%
Percent Growth (UACC-62; UACC-62, Log10 Concentration −8.0): 98%
GI50 (KM12; Homo sapiens, KM12): 17.7 µM
CC50 (KM12; Homo sapiens, KM12, read-out: LC50): 67.9 µM
TGI (KM12; KM12): 3.46E−5
Percent Growth (KM12; KM12, Log10 Concentration −4.0): −79%
Percent Growth (KM12; KM12, Log10 Concentration −5.0): 92%
Percent Growth (KM12; KM12, Log10 Concentration −6.0): 104%
Percent Growth (KM12; KM12, Log10 Concentration −7.0): 100%
Percent Growth (KM12; KM12, Log10 Concentration −8.0): 98%
GI50 (SK-MEL-28; Homo sapiens, SK-MEL-28): 3.44 µM
CC50 (SK-MEL-28; Homo sapiens, SK-MEL-28, read-out: LC50): 46 µM
IC (TGI) (SK-MEL-28; Homo sapiens, SK-MEL-28, read-out: TGI): 14.8 µM
Percent Growth (SK-MEL-28; SK-MEL-28, Log10 Concentration −4.0): −84%
Percent Growth (SK-MEL-28; SK-MEL-28, Log10 Concentration −5.0): 17%
Percent Growth (SK-MEL-28; SK-MEL-28, Log10 Concentration −6.0): 8.8. Percent
Percent Growth (SK-MEL-28; SK-MEL-28, Log10 Concentration −7.0): 91%
Percent Growth (SK-MEL-28; SK-MEL-28, Log10 Concentration −8.0): 92%
GI50 (SN12C; Homo sapiens): 12.5 µM
CC50 (SN12C; Homo sapiens, read-out: LC50): > 100 µM
IC (TGI) (SN12C; Homo sapiens, read-out: TGI): 40.4 µM
Percent Growth (SN12C; Log10 Concentration −4.0): −39%
Percent Growth (SN12C; Log10 Concentration −5.0): 59%
Percent Growth (SN12C; Log10 Concentration −6.0): 95%
Percent Growth (SN12C; Log10 Concentration −7.0): 100%
Percent Growth (SN12C; Log10 Concentration −8.0): 97%
GI50 (NCI-H322M; Homo sapiens): 29.6 µM
CC50 (NCI-H322M; Homo sapiens, read-out: LC50): > 100 µM
IC (TGI) (NCI-H322M; Homo sapiens, read-out: TGI): > 100 µM
Percent Growth (NCI-H322M; Log10 Concentration −4.0): 5%
Percent Growth (NCI-H322M; Log10 Concentration −5.0): 90%
Percent Growth (NCI-H322M; Log10 Concentration −6.0): 99%
Percent Growth (NCI-H322M; Log10 Concentration −7.0): 95%
Percent Growth (NCI-H322M; Log10 Concentration −8.0): 92%
Percent Growth (HCT-116; Log10 Concentration −4.0): −100%
Percent Growth (HCT-116; Log10 Concentration −5.0): 13%
Percent Growth (HCT-116; Log10 Concentration −6.0): 97%
Percent Growth (HCT-116; Log10 Concentration −7.0): 93%
Percent Growth (HCT-116; Log10 Concentration −8.0): 97%
GI50 (HCT-116; Homo sapiens, HCT-116, HCT-116): 3.62 µM
CC50 (HCT-116; Homo sapiens, HCT-116, read-out: LC50): 36.2 µM
IC (TGI) (HCT-116; Homo sapiens, HCT-116, read-out: TGI): 13.1 µM
